According to BindingDB's records for doi:10.1016/j.bmcl.2004.06.018 (Darmstadt Technical University, 2004):

Molecular target: Proto-oncogene tyrosine-protein kinase Src (Homo sapiens, UniProt P12931)
Experiment: Inhibition of fluorescent (GpYEEI) binding to Src protein tyrosine kinase SH2 domain

Chain of Proto-oncogene tyrosine-protein kinase Src (P12931 2-536 limits assumed): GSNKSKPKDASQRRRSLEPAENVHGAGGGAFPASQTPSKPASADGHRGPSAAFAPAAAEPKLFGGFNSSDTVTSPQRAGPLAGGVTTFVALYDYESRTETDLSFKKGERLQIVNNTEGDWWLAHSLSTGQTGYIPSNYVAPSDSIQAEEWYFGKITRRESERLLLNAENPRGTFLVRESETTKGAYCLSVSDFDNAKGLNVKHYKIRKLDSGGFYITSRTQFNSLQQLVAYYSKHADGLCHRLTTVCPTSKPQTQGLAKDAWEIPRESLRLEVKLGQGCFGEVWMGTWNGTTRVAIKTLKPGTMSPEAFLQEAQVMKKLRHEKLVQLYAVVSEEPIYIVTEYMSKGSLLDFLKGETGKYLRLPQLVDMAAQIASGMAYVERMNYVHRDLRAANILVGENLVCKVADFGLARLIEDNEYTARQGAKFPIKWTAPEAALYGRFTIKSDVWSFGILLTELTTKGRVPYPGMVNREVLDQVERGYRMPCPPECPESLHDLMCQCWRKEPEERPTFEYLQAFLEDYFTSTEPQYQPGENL

| IC50 | SMILES |
| --- | --- |
| 20 µM | COc1cccc(CNC(=O)[C@@H](NC(=O)COc2cc3[n+]4c(c2)C(=O)[O][Cu]4([OH])[O]C3=O)c2ccccc2)c1 [Copper complex] |
| 17 µM | COc1cccc(CNC(=O)[C@H](Cc2ccccc2)NC(=O)COc2cc3[n+]4c(c2)C(=O)[O][Cu]4([OH])[O]C3=O)c1 [Copper complex] |
